Here are results for 13 molecules from EP0571685A1, “Aryloxyheteroarylpropylamines, their preparation and use” (NOVO NORDISK A/S, priority 1992, dated 1993).

For the test, the system named is voltage operated calcium channels (VOC). Description: Inhibition of depolarization-induced 45Ca uptake into brain synaptosomes. It counts as biochemical. As to conditions: crude synaptosomal preparation (P₂) from male Wistar rat cerebral cortex; depolarization with 145 mM KCl; 15 s uptake; corrected for basal uptake; estimated from dose response curves. From the text: The pharmacological properties of the compounds of the invention can be illustrated by determining their capability to inhibit calcium uptake into brain synaptosomes.
Depolarization of neuronal membranes leads to an opening of socalled "voltage operated calcium channels" (VOC) in the membranes which allows a massive influx of calcium from the extracellular space. A crude synaptosomal preparation (socalled P₂ fraction) contains small vesicles surrounded by neuronal membrane and it is possible in such a preparation to study a depolarization-induced opening of VOC.
A male Wistar rat is decapitated and the cerebral cortex removed and homogenized in 10 ml. of ice-cold 0.32 M sucrose using a glass homogenizer with a teflon pestle. All subsequent steps for isolation of synaptosomes are done at 0-4°C. The homogenate is centrifuged at 1000 x g for 10 min and the resulting supernatant is re-centrifuged at 18000 x g for 20 min. This pellet (P₂) is resuspended in 0.32 M sucrose (5 ml per g of original tissue) with a teflon pestle.
The tubes are pre-incubated for 30 min on ice and then for 6 min at 37°C in a water bath.
The incubation is continued for 15 s.
The amount of radioactivity on the filter disc is determined by liquid scintillation spectrometry.
Test substances are dissolved in 10 ml of 48% ethanol at a concentration of 0.44 mg/ml. Dilution are made in 48% ethanol to give final concentrations of 0.1, 0.3, 1, 3 and 10 µg/ml. Experiments are performed in triplicate. Controls for depolarized and nondepolarized samples are included in the assay and test substances are only tested in depolarized samples.
The test value will be given as IC₅₀ (the concentration (µg/ml) of test substance which inhibit 50% of stimulated uptake of ⁴⁵Ca (uptake in depolarized samples corrected for basal uptake in nondepolarized samples )). The IC₅₀ value is estimated from dose response curves.
As to `N#Cc1cccc(OC(CCN2CCCCC2)c2ccc(Cl)s2)c1.O=C(O)C(=O)O` (stereo not shown) [Compound 16, 1-(3-(5-chloro-2-thienyl)-3-(3-cyanophenoxy)propyl)piperidine, oxalate], the “IC₅₀ (concentration of test substance which inhibit 50% of stimulated uptake of ⁴⁵Ca)” value is 12.0 µg/mL.

Regarding `FC(F)(F)c1cccc(OC(CCN2CCCCC2)c2ccc(Cl)s2)c1.O=C(O)C(=O)O` (stereo not shown) [Compound 18, 1-(3-(5-chloro-2-thienyl)-3-(3-trifluoromethylphenoxy)propyl)piperidine, oxalate], the “IC₅₀ (concentration of test substance which inhibit 50% of stimulated uptake of ⁴⁵Ca)” value is 7.3 µg/mL.

As to `CN(C)CCC(Oc1ccc(Oc2ccccc2)cc1)c1ccc(Br)s1.O=C(O)C(=O)O` (stereo not shown) [Compound 21, 3-(5-Bromo-2-thienyl)-N,N-dimethyl-3-(4-phenoxyphenoxy)propanamine, oxalate], the “IC₅₀ (concentration of test substance which inhibit 50% of stimulated uptake of ⁴⁵Ca)” value was 5.9 µg/mL.

As to `FC(F)(F)c1ccc(OC(CCN2CCCCC2)c2cccs2)cc1.O=C(O)C(=O)O` (stereo not shown) [Compound 24, 1-(3-(2-Thienyl)-3-(4-trifluoromethylphenoxy)propyl)piperidine, oxalate], the “IC₅₀ (concentration of test substance which inhibit 50% of stimulated uptake of ⁴⁵Ca)” value is 5.8 µg/mL.

For `CCCCNCCC(Oc1ccc(C(F)(F)F)cc1)c1cc(C)sc1C.O=C(O)C(=O)O` (stereo not shown) [Compound 4, N-butyl-3-(2,5-dimethyl-3-thienyl)-3-(4-trifluoromethylphenoxy)propanamine, oxalate], the “IC₅₀ (concentration of test substance which inhibit 50% of stimulated uptake of ⁴⁵Ca)” value is 3.8 µg/mL.

For `CCCCNCCC(Oc1ccc(C#N)cc1)c1cc(C)sc1C.O=C(O)C(=O)O` (stereo not shown) [Compound 3, N-butyl-3-(4-cyanophenoxy)-3-(2,5-dimethyl-3-thienyl)propanamine, oxalate], the “IC₅₀ (concentration of test substance which inhibit 50% of stimulated uptake of ⁴⁵Ca)” value is 6.6 µg/mL.

Turning to `CN(C)CCC(Oc1ccc(-c2ccccc2)cc1)c1ccc(Br)s1.O=C(O)C(=O)O` (stereo not shown) [Compound 22, 3-(5-Bromo-2-thienyl)-N,N-dimethyl-3-(4-phenylphenoxy)propanamine, oxalate], the “IC₅₀ (concentration of test substance which inhibit 50% of stimulated uptake of ⁴⁵Ca)” value was 4.4 µg/mL.

As to `FC(F)(F)c1ccc(OC(CCN2CCCCC2)c2ccc(Cl)s2)cc1.O=C(O)C(=O)O` (stereo not shown) [Compound 15, 1-(3-(5-chloro-2-thienyl)-3-(4-trifluoromethylphenoxy)propyl)piperidine, oxalate], the “IC₅₀ (concentration of test substance which inhibit 50% of stimulated uptake of ⁴⁵Ca)” value was 2.4 µg/mL.

For `Cc1coc(C)c1C(CCN(C)C)Oc1ccc(C(F)(F)F)cc1.O=C(O)C(=O)O` (stereo not shown) [Compound 11, N,N-Dimethyl-3-(2,4-dimethyl-3-furyl)-3-(4-trifluoromethylphenoxy)propaneamine, oxalate], the “IC₅₀ (concentration of test substance which inhibit 50% of stimulated uptake of ⁴⁵Ca)” value was 10.3 µg/mL.

On to `CSc1ccc(OC(CCN(C)C)c2ccc(Br)s2)cc1.O=C(O)C(=O)O` (stereo not shown) [Compound 19, 3-(5-Bromo-2-thienyl)-N,N-dimethyl-3-(4-(methylthio)phenoxy)propanamine, oxalate], for which the “IC₅₀ (concentration of test substance which inhibit 50% of stimulated uptake of ⁴⁵Ca)” value is 4.4 µg/mL.

As to `CN(C)CCC(Oc1ccc(C(F)(F)F)cc1)c1cccs1.O=C(O)C(=O)O` (stereo not shown) [Compound 23, N,N-dimethyl-3-(2-thienyl)-3-(4-trifluoromethylphenoxy)propanamine, oxalate], the “IC₅₀ (concentration of test substance which inhibit 50% of stimulated uptake of ⁴⁵Ca)” value is 8.6 µg/mL.

For the molecule `CN(C)CCC(Oc1ccc(C(F)(F)F)cc1)c1ccsc1.Cl` (stereo not shown) [Compound 27, N,N-dimethyl-3-(3-thienyl)-3-(4-trifluoromethylphenoxy)propanamine, hydrochloride], the “IC₅₀ (concentration of test substance which inhibit 50% of stimulated uptake of ⁴⁵Ca)” value was 13 µg/mL.

Take `FC(F)(F)c1ccccc1OC(CCN1CCCCC1)c1ccc(Cl)s1.O=C(O)C(=O)O` (stereo not shown) [Compound 17, 1-(3-(5-chloro-2-thienyl)-3-(2-trifluoromethylphenoxy)propyl)piperidine, oxalate]: the “IC₅₀ (concentration of test substance which inhibit 50% of stimulated uptake of ⁴⁵Ca)” value is 3.0 µg/mL.
